Measurements: PMC11381544 (Nature Communications, 2024)

Tested on: P3H1 within the PCP complex
Experiment: 2-OG dependent oxygenase activity
Assay type: biochemical, human
Conditions: Succinate-Glo assay, Fig. 1g, Fig. 3f, Supplementary Fig. 1f

| Substance | 2OG-Fe (II) oxygenase / P3H1 activity, in words | 2OG-Fe (II) oxygenase / P3H1 activity, in words (listed as PPIB^R95A) | 2OG-Fe (II) oxygenase / P3H1 activity, in words (listed as R95A) |
| --- | --- | --- | --- |
| peak HW: high molecular weight elution fractions corresponding to the PCP dual-ternary complex | slightly lower P3H1 activity |  |  |
| PCP ternary complex: low molecular weight elution fractions corresponding to the PCP ternary complex | inhibited upon depletion of ferrous ions |  |  |
| cyclosporin A [CsA, reference compound] | hydroxylation enhancement was absent |  |  |
| PCP-PPIBR95A: PCP complex with PPIB enzymatic mutation at the PI-site, R95A |  | elevated P3H1 activities | enhancing P3H1 activities |
